Assays:
[1] = biological target: T1, Tyrosine-protein kinase BTK (Homo sapiens, UniProt Q06187); assay: Inhibition of BTK in human PBMC assessed as reduction in cell surface CD69 expression preincubated for 1 hr followed by stimulation with goat anti-human IgM F(ab')2 for 18 hrs by immunostaining analysis; format: tissue-based
[2] = biological target: T1, Tyrosine-protein kinase BTK; assay: Inhibition of recombinant full length BTK (unknown origin) expressed in baculovirus infected Sf9 cells using Biotin-EQEDEPEGDYFEWLE-NH2 peptide as substrate incubated for 60 mins followed by further incubation with substrate and ATP for 120 mins by TR-FRET assay
[3] = biological target: T1, Tyrosine-protein kinase BTK; assay: Inhibition of BTK in human whole blood assessed as reduction in cell surface CD69 expression preincubated for 1 hr followed by stimulation with anti-CD79b for 3 hrs by immunostaining analysis; format: tissue-based
[4] = Clearance in Wistar Han rat at 2 mg/kg, iv; format: ADME, organism-based; settings: in vivo
[5] = Volume of distribution at steady state in Wistar Han rat at 2 mg/kg, iv; format: ADME, organism-based; settings: in vivo, read-out: Vdss
[6] = Half life in Wistar Han rat at 2 mg/kg, iv; format: ADME, organism-based; settings: in vivo
[7] = Tmax in Wistar Han rat at 5 mg/kg, po; format: ADME, organism-based; settings: in vivo
[8] = AUC in Wistar Han rat at 2 mg/kg, iv; format: ADME, organism-based; set-up: dose 2 mg/kg; settings: in vivo
[9] = Cmax in Wistar Han rat at 5 mg/kg, po; format: ADME, organism-based; set-up: route oral, dose 5 mg/kg; settings: in vivo
[10] = Oral bioavailability in Wistar Han rat at 5 mg/kg; format: ADME, organism-based; settings: Wistar Han, in vivo

T1 sequence (Q06187 whole entry): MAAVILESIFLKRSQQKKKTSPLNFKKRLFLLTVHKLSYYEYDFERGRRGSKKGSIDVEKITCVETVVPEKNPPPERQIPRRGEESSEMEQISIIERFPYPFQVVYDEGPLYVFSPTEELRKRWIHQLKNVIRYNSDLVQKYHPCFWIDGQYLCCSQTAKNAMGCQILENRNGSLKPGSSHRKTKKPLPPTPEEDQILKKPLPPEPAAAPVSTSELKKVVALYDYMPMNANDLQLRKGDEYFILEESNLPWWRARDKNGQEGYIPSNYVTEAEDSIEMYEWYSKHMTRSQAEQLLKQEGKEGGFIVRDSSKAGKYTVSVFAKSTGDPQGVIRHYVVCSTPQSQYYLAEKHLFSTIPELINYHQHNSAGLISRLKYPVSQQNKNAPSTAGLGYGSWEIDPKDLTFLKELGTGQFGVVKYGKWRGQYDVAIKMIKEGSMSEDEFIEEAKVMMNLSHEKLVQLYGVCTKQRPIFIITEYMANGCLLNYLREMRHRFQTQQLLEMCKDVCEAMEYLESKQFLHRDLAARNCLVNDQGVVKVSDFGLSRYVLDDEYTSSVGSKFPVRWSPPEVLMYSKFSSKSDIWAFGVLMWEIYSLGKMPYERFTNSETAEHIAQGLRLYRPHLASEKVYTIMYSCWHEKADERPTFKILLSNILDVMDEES

Row | IC50 [1] [nM] | IC50 [3] [nM] | SMILES | also measured
1 | 41 | – | CC(C)Oc1cc(C(=O)Nc2cc(C(F)(F)F)ccn2)ccc1-c1nc([C@@H]2CC[C@H]3CCC(=O)N3C2)n2ccnc(N)c12 | –
2 | 582 | – | Nc1nccn2c([C@H]3CN4C(=O)OC[C@@H]4CO3)nc(-c3ccc(C(=O)Nc4cc(C(F)(F)F)ccn4)cc3)c12 | IC50 [2]: 25 nM
3 | 10 | 92 | CCOc1cc(C(=O)Nc2cc(C(F)(F)F)ccn2)ccc1-c1nc([C@@H]2CC[C@H]3CCC(=O)N3C2)n2ccnc(N)c12 | –
4 | – | – | Nc1nccn2c([C@@H]3CC[C@H]4CCC(=O)N4C3)nc(-c3ccc(C(=O)Nc4cc(C(F)(F)F)ccn4)cc3OC3CC3)c12 | clearance [4]: 42 mL/min/kg; Vd [5]: 4.2 L/kg; half-life [6]: 138 min; Tmax [7]: 3.5 h; AUC [8]: 1.4 µM·h; Cmax [9]: 140 nM; bioavailability [10]: 14%
5 | 20 | 415 | Nc1nccn2c([C@@H]3CC[C@H]4CCC(=O)N4C3)nc(-c3ccc(C(=O)Nc4cc(C(F)(F)F)ccn4)cc3OC(F)F)c12 | –
6 | 74 | – | Nc1nccn2c([C@@H]3CC[C@H]4CCC(=O)N4C3)nc(-c3ccc(C(=O)Nc4cc(C(F)(F)F)ccn4)cc3OC(F)(F)F)c12 | IC50 [2]: 10 nM
7 | 3.2 | 63 | C[C@H]1OC(=O)N2C[C@H](c3nc(-c4ccc(C(=O)Nc5cc(C(F)(F)F)ccn5)cc4)c4c(N)nccn34)CC[C@@H]12 | –
8 | 4 | 101 | Nc1nccn2c([C@@H]3CC[C@H]4CCC(=O)N4C3)nc(-c3ccc(C(=O)Nc4cc(C(F)(F)F)ccn4)cc3F)c12 | –
9 | 39 | 204 | Nc1nccn2c([C@@H]3CC[C@H]4CCCN4C3)nc(-c3ccc(C(=O)Nc4cc(C(F)(F)F)ccn4)cc3)c12 | –
10 | 310 | – | Nc1nccn2c([C@@H]3CC[C@H]4CCC(=O)N4C3)nc(-c3ccc(C(=O)Nc4cc(C(F)(F)F)ccn4)cc3Oc3ccccc3)c12 | IC50 [2]: 11 nM
11 | 1410 | – | Nc1nccn2c([C@@H]3CC[C@H]4CCC(=O)N4C3)nc(-c3ccc(C(=O)Nc4cc(C(F)(F)F)ccn4)cc3C(=O)O)c12 | –

— ChEMBL document CHEMBL4725309, “Potent, non-covalent reversible BTK inhibitors with 8-amino-imidazo[1,5-a]pyrazine core featuring 3-position bicyclic ring substitutes” (Bioorg Med Chem Lett, 2020)
